Key:
Type in all cases: cell-based
FKBP*-KRASG12V = assay: Immunoblot of FKBP*-KRASG12V (dTAG-KRAS) degradation in NIH3T3 cells
Protocol: (§1) FIG. 11 is an immunoblot of NIH3T3 cells expressing KRASG12V allele fused to FKBP* in the N-terminus or C-terminus. Cells were treated with 500 nM dFKBP7 for the indicated time. Cells were harvested and immunoblotted to measure degradation of FKBP*-KRASG12V and downstream surrogates of KRAS signaling (e.g. pMEK and pAKT).
(§2) FIG. 12 is an immunoblot of NIH3T3 cells expressing FKBP* fused to the N-terminus of KRASG12V treated with 1 uM of the indicated dFKBP heterobifunctional compounds for 24 hours. Cells were harvested and immunoblotted to measure degradation of FKBP*-KRASG12V and downstream surrogates of KRAS signaling (e.g. pMEK and pAKT).
(§3) FIG. 13 is an immunoblot of NIH3T3 cells expressing FKBP* fused to the N-terminus of KRASG12V treated with the indicated concentrations of dFKBP13 for 24 hours. Cells were harvested and immunoblotted to measure degradation of FKBP*-KRASG12V and downstream surrogates of KRAS signaling (e.g. pMEK and pAKT).
(§4) FIG. 14 is an immunoblot of NIH3T3 cells expressing FKBP* fused to the N-terminus of KRASG12V treated with 1 uM dFKBP13 for the indicated time. Cells were harvested and immunoblotted to measure degradation of FKBP*-KRASG12V and downstream surrogates of KRAS signaling (e.g. pMEK and pAKT).
FIG. 15 is an immunoblot of NIH3T3 cells expressing dTAG-KRASG12V pretreated with 1 uM Carfilzomib (proteasome inhibitor), 0.5 uM MLN4924 (neddylation inhibitor), and 10 uM Lenalidomide (CRBN binding ligand) for two hours prior to a 4 hour treatment with dFKBP13.
(§5) Cells were treated with 500 nM dFKBP7 for the indicated time. Cells were harvested and immunoblotted to measure degradation of FKBP*-KRAS and downstream surrogates of KRAS signaling (e.g. pMEK and pAKT).
(§6) In an effort to identify the best performing dFKBP molecule, dTAG-KRAS degradation was profiled across a series of dFKBP molecules. Western blotting of NIH3T3 cells expressing dTAG-KRASG12V were treated with 1 μM of the indicated dFKBP heterobifunctional compounds for 24 hours. Cells were harvested and immunoblotted to measure degradation of FKBP*-KRAS and downstream surrogates of KRAS signaling (e.g. pMEK and pAKT).
(§7) Western blotting of NIH3T3 cells expressing FKBP* fused to the N-terminus of KRAS treated with the indicated concentrations of dFKBP13 for 24 hours. Cells were harvested and immunoblotted to measure degradation of FKBP*-KRAS and downstream surrogates of KRAS signaling (e.g. pMEK and pAKT).
(§8) To evaluate the kinetic control of targeted degradation of dTAG-KRAS, dFKBP13 was administered by increased duration. Western blotting of NIH3T3 cells expressing FKBP* fused to the N-terminus of KRAS treated with 1 μM dFKBP13 for the indicated time. Cells were harvested and immunoblotted to measure degradation of FKBP*-KRAS and downstream surrogates of KRAS signaling (e.g. pMEK and pAKT).
NIH3T3 cells (CRBN-WT) were engineered to express dTAG-KRASG12V. Cells were pretreated with 1 uM Carfilzomib (proteasome inhibitor), 0.5 uM MLN4924 (neddylation inhibitor), and 10 uM Lenalidomide (CRBN binding ligand) for two hours prior to a 4 hour treatment with dFKBP13. Lysates were prepared and western immunoblot analysis performed. […] Pre-treatment with the NAE1 inhibitor MLN4924 rescued dTAG-KRASG12V expression establishing dependence on CRL activity, as expected for cullin-based ubiquitin ligases that require neddylation for processive E3 ligase activity. Pre-treatment with excess Lenalidomide abolished dFKBP13-dependent dTAG-KRASG12V degradation, confirming the requirement of CRBN engagement for degradation.

[1] = biological target: T1, FKBP* (FKBP12 F36V), HA-tagged (Homo sapiens, UniProt P62942, F37V); assay: Immunoblot of FKBP* degradation in 293FT cells (CRBN-WT or CRBN−/−)
T1 construct: expressed in transfected cells; host or cells: 293FT cells (CRBN-WT or CRBN-/-)
T1 sequence (P62942 2-108 F37V limits assumed): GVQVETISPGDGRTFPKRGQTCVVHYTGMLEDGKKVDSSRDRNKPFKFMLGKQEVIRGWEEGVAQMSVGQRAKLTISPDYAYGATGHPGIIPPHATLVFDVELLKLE
Protocol: 293FT cells (CRBN-WT or CRBN−/−) expressing either HA-tagged FKBP12WT or FKBP* were treated with indicated concentrations of dFKBP7 for 4 hours.
Isogenic 293FT cells (CRBN-WT or CRBN−/−) expressing either FKBP12WT or FKBP* were treated with 100 nM of either dFKBP7 or dFKBP13 for 4 hours.
Isogenic 293FT cells (CRBN-WT or CRBN−/−) expressing HA-tagged FKBP* were treated with the indicated dose of dFKBP13 for 4 hours.
293FT cells (CRBN-WT) expressing FKBP* were pretreated with 1 uM Carfilzomib (proteasome inhibitor), 0.5 uM MLN4924 (neddylation inhibitor), and 10 uM Lenalidomide (CRBN binding ligand) for two hours prior to a 4 hour treatment with dFKBP13.
The dTAG is predicated on the selectivity of FKBP* specific ligands over endogenous, wild type FKBP. In 293T cells expressing wild type FKBP12 or FKBP*, dFKBP7 induces targeted degradation only in FKBP* expressing cells. […] 293FT cells (CRBN-WT or CRBN−/−) expressing either HA-tagged FKBP12WT or FKBP* were treated with indicated concentrations of dFKBP7 for 4 hours.
In 293T cells expressing wild type FKBP12 or FKBP*, treatment with dFKBP7 and dFKBP13 induces targeted degradation only in FKBP* expressing cells. Isogenic 293FT cells (CRBN-WT or CRBN−/−) were engineered to expressed either FKBP12WT or FKBP*. Cells were treated with 100 nM of either dFKBP7 or dFKBP13 for 4 hours before lysates were prepared for western immunoblot analysis.
In an effort to define the optimal concentration of dFKB13 heterobifunctional compound to induce degradation of FKBP*, degradation was measured upon treatment with increasing concentrations of dFKBP13. Isogenic 293FT cells (CRBN-WT or CRBN−/−) were engineered to expressed HA-tagged FKBP*. Cells were treated with the indicated dose of dFKBP13 for 4 hours before lysates were prepared for western immunoblot analysis.
293FT cells (CRBN-WT) were engineered to express FKBP*. Cells were pretreated with 1 uM Carfilzomib (proteasome inhibitor), 0.5 uM MLN4924 (neddylation inhibitor), and 10 uM Lenalidomide (CRBN binding ligand) for two hours prior to a 4 hour treatment with dFKBP13. Lysates were prepared and western immunoblot analysis performed.

[2] = test system: KRAS signaling (pMEK and pAKT); assay: Immunoblot of downstream surrogates of KRAS signaling in NIH3T3 cells expressing dTAG-KRAS; conditions: NIH3T3 FKBP*-KRASG12V, 1 uM, 24 hours
Protocol: as §1, §2, §3, §4, §5, §6, §7, §8
The dFKBP13 heterobifunctional compound potently degrades dTAG-KRAS mutant alleles. NIH3T3 cells were engineered to express KRAS alleles either WT or mutant forms of amino acid glycine 12 (G12C, G12D, and G12V). Western blotting of NIH3T3 cells expressing dTAG fused to the N-terminus of KRAS alleles were treated with 1 uM of dFKBP13 for 24 hours. Cells were harvested and immunoblotted to measure degradation of dTAG-KRAS and downstream surrogates of KRAS signaling (e.g. pMEK and pAKT).
The dFKBP13 heterobifunctional compound potently degrades dTAG-KRAS mutant alleles. NIH3T3 cells were engineered to express either WT or mutant KRAS alleles (G13D, Q61L, and Q61R). Western blotting of NIH3T3 cells expressing dTAG fused to the N-terminus of KRAS alleles were treated with 1 uM of dFKBP13 for 24 hours. Cells were harvested and immunoblotted to measure degradation of dTAG-KRAS and downstream surrogates of KRAS signaling (e.g. pMEK and pAKT).

[3] = 1 uM Carfilzomib, two hours prior to a 4 hour treatment with dFKBP13
[4] = 10 uM Lenalidomide, two hours prior to a 4 hour treatment with dFKBP13
[5] = 0.5 uM MLN4924, two hours prior to a 4 hour treatment with dFKBP13

CC(C)C[C@H](NC(=O)[C@H](CCc1ccccc1)NC(=O)CN1CCOCC1)C(=O)N[C@@H](Cc1ccccc1)C(=O)N[C@@H](CC(C)C)C(=O)[C@@]1(C)CO1 [Carfilzomib, reference compound]
effect of pretreatment on dFKBP13-induced degradation of dTAG-KRASG12V (FKBP*-KRASG12V; [3]): rescued
effect of pretreatment on dFKBP13-induced degradation of HA-tagged FKBP* [1, 3]: rescued

Nc1cccc2c1CN(C1CCC(=O)NC1=O)C2=O (centres unmarked) [Lenalidomide, reference compound]
effect of pretreatment on dFKBP13-induced degradation of dTAG-KRASG12V (FKBP*-KRASG12V; [4]): abolished
effect of pretreatment on dFKBP13-induced degradation of HA-tagged FKBP* [1, 4]: abolished

NS(=O)(=O)OC[C@@H]1C[C@@H](n2ccc3c(N[C@H]4CCc5ccccc54)ncnc32)C[C@@H]1O [MLN4924, reference compound]
effect of pretreatment on dFKBP13-induced degradation of dTAG-KRASG12V (FKBP*-KRASG12V; [5]): rescued
effect of pretreatment on dFKBP13-induced degradation of HA-tagged FKBP* [1, 5]: rescued

CC[C@H](C(=O)N1CCCC[C@H]1C(=O)O[C@H](CCc1ccc(OC)c(OC)c1)c1cccc(OCC(=O)NCCCCCCCCNC(=O)COc2cccc3c2C(=O)N(C2CCC(=O)NC2=O)C3=O)c1)c1cc(OC)c(OC)c(OC)c1 (some centres unmarked) [dFKBP9]
downstream signaling (pMEK and pAKT) [2]: inhibition of downstream signaling
degradation of FKBP*-KRASG12V (FKBP*-KRASG12V; NIH3T3, 1 uM, 24 hours): potent degradation

Reference: US11293023B2, “Tunable endogenous protein degradation” (Dana-Farber Cancer Institute, Inc., priority 2015, dated 2022)
